From patent US10570179B2, “Substituted urea depsipeptide analogs as activators of the CLPP endopeptidase” (priority 2016, dated 2020)
In brackets after ≈: the same amount, converted by molar mass. Where two headings read alike, the source gives them in different places. Numbered stars: 1 amine (or outer) side, 2 acyl side, 3 side chain; on linkers, the order of the positions; unused ones are H or OH. Bridge positions count the residues as written; N and C are the ends. Square brackets hold non-standard residues; d marks the D form. Peptide text beside a SMILES is read from it. * marks the point of attachment. Piperazine(2S-CO,4-Me) = CN1CCN[C@H](C(=O)O)C1; Phe(3,5-F2) = N[C@@H](Cc1cc(F)cc(F)c1)C(=O)O; NH(1-Me-indolin-5-yl) = CN1CCc2cc(N*)ccc21; Morpholine(3S-CO) = O=C(O)[C@@H]1COCCN1; Phe(3-Me) = Cc1cccc(C[C@H](N)C(=O)O)c1; Pro(4S-Me) = C[C@@H]1CN[C@H](C(=O)O)C1; NH(4-Cl-2-F-phenyl) = Fc1cc(Cl)ccc1N*; Pro(4R-Me) = C[C@H]1CN[C@H](C(=O)O)C1; Propanoyl(3-NMe2) = CN(C)CCC(=O)*; X1 = O=C([C@@H]1CSCCN1[*:1])[*:2]; Hyp = O=C(O)[C@@H]1C[C@@H](O)CN1; NH(4-Me-phenyl) = Cc1ccc(N*)cc1; aThr = C[C@H](O)[C@H](N)C(=O)O; Pip = O=C(O)[C@@H]1CCCCN1; 4Abz = Nc1ccc(C(=O)O)cc1; CO = O=C([*:1])[*:2]; X2 = Fc1cc(N*)ccc1Cl

How the values were obtained:
E. faecails = test: Minimal inhibitory concentration, microbroth dilution; type: cell-based; details: Enterococcus faecalis
Outline: (§1)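 MIC is recorded by eye as the lowest drug concentration that stops bacterial growth. Compound is serially diluted twofold in broth, starting at 200 μM final, and bacteria are added at roughly 10^5 cfu/mL. Incubation runs overnight at 37 °C under aerobic conditions, per CLSI guidance.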

S. aureus ATCC 29213 = test: as above; type: cell-based; details: Staphylococcus aureus
Outline: as §1

[1] = Plasma protein binding, rapid equilibrium dialysis; type: in vitro ADME, human; details: 10 μM
Method: This assay determines plasma protein binding of a drug/compound and free drug concentration in plasma using rapid equilibrium dialysis, which allow the aqueous component of plasma containing the free drug/compound through a dialysis membrane (MWCO˜8,000).
Solutions were prepared at 10 mM in DMSO. Dulbecco's phosphate buffered saline (DPBS; pH 7.4) was obtained from Invitrogen (Carlsbad, Calif.). Single-Use RED (rapid equilibrium dialysis) device was obtained from Thermo scientific (Rockford, Ill.). Human plasma was obtained from Innovative Research INC (Novi, Michigan, Ill).
Sample preparation for plasma protein binding was modified from Waters' method. (Waters et al. (2008) J. Pharm. Sci. 97(10): 4586-95). The Teflon base plate with the RED inserts (MWCO 8 K) were allowed to use without any pre-condition the membrane inserts. Human plasma was thawed and centrifuged at 1000 rpm for 2 min to remove any particulates. Each compound was prepared at 10 μM in human plasma. This was done by adding 1 μL, of drug solution (10 mM in DMSO) to 1000 μL, of human plasma (0.1% DMSO). Spiked plasma solutions (300 μL) were placed into the sample chamber (indicated by the red ring) and 500 μL, of DPBS into the adjacent chamber. The plate was sealed and incubated at 37° C. on an orbital shaker (100 rpm) for 4 hours. After incubation, the seal was removed from the RED plate and the volume of the insert confirmed—little to no volume change occurred. Aliquots (50 μL) were removed from each side of the insert and dispensed into a 96-well deep plate. An equal volume of blank plasma or DPBS was added to the required wells to create analytically identical sample matrices (matrix matching). To each sample 200 μL, of ACN containing 4 μg/mL warfarin IS was added. All of the plates were sealed and mixed well at 600 rpm for 10 min and were centrifuged at 4000 rpm for 20 min. The supernatants (120 μL) were transferred to analytical plates for analysis by LCMS. Conditions for Waters ACQUITY-UPLC-MS-UV system were described separately. The test compound concentrations were quantified in both buffer and plasma chambers via peak areas relative to the internal standard. The percentage of the test compound bound to plasma was calculated on following equations: % Free=(Concentration buffer chamber/concentration plasma chamber)×100% and % Bound=100%-% Free.

[2] = read-out: Minimal Inhibitory Concentrations (μM) E. faecails, MIC
[3] = ATCC29213, read-out: Minimal Inhibitory Concentrations (μM) S. aureus ATCC 29213, MIC
[4] = plasma binding, % Bound, human plasma
[5] = MIC, read-out: Minimal Inhibitory Concentrations (μM) E. faecails
[6] = ATCC29213, MIC, read-out: Minimal Inhibitory Concentrations (μM) S. aureus ATCC 29213

Compound	MIC (E. faecails; [2]) [µM]	MIC (S. aureus ATCC 29213; [3]) [µM]	Human [1, 4] [%]	MIC (E. faecails; [5]) [µM]	MIC (S. aureus ATCC 29213; [6]) [µM]	Human ([1]; human, 4 h, pH 7.4) [%]
CCOC(=O)c1ccc(NC(=O)N[C@@H](Cc2cccc(C)c2)C(=O)N[C@@H]2C(=O)N3C[C@H](O)C[C@H]3C(=O)N3CCCC[C@H]3C(=O)N[C@@H](C)C(=O)N3C[C@H](C)C[C@H]3C(=O)O[C@H]2C)cc1 [Compound 36, ETHYL 4-(3-((S)-1-(((2R,6S,8AS,14AS,16R,20S,21S,23AS)-16-HYDROXY-2,6,21-TRIMETHYL-5,8,14,19,23-PENTAOXOOCTADECAHYDRO-1H,5H,14H,19H-PYRIDO[2,1-I]DIPYRROLO[2,1-C:2′,1′-L][1]OXA[4,7,10,13]TETRAAZACYCLOHEXADECIN-20-YL)AMINO)-1-OXO-3-(M-TOLYL)PROPAN-2-YL)UREIDO)BENZOATE] ({OEt-4Abz-CO}-[Phe(3-Me)][aThr][Hyp][Pip]A[Pro(4R-Me)]; ester 2-C)	1.25 (≈ 1.07 µg/mL)	1.25 (≈ 1.07 µg/mL)	98.3 ± 8.3	–	–	–
Cc1cccc(C[C@H](NC(=O)Nc2ccc(Cl)cc2F)C(=O)N[C@@H]2C(=O)N3C[C@H](O)C[C@H]3C(=O)N3CCSC[C@H]3C(=O)N[C@@H](C)C(=O)N3C[C@H](C)C[C@H]3C(=O)O[C@H]2C)c1 [Compound 41, (S)-2-(3-(4-CHLORO-2-FLUOROPHENYL)UREIDO)-N-((6AS,8R,12S,13S,15AS,17R,21S,23AR)-8-HYDROXY-13,17,21-TRIMETHYL-6,11,15,20,23-PENTAOXOOCTADECAHYDRO-6H,11H,15H-DIPYRROLO[2,1-C:2′,1′-L][1,4]THIAZINO[3,4-I][1]OXA[4,7,10,13]TETRAAZACYCLOHEXADECIN-12-YL)-3-(M-TOLYL)PROPANAMIDE] ({NH(4-Cl-2-F-phenyl)-CO}-[Phe(3-Me)][aThr][Hyp][X1]A[Pro(4R-Me)]; ester 2-C)	–	–	–	0.625 (≈ 0.536 µg/mL)	0.31 (≈ 0.266 µg/mL)	99.7 ± 9.7
Cc1cccc(C[C@H](NC(=O)Nc2ccc(Cl)cc2F)C(=O)N[C@@H]2C(=O)N3C[C@H](OC(=O)CCN(C)C)C[C@H]3C(=O)N3CCCC[C@H]3C(=O)N[C@@H](C)C(=O)N3C[C@H](C)C[C@H]3C(=O)O[C@H]2C)c1 [Compound 46, (2R,6S,8AS,14AS,16R,20S,21S,23AS)-20-((S)-2-(3-(4-CHLORO-2-FLUOROPHENYL)UREIDO)-3-(M-TOLYL)PROPANAMIDO)-2,6,21-TRIMETHYL-5,8,14,19,23-PENTAOXOOCTADECAHYDRO-1H,5H,14H,19H-PYRIDO[2,1-I]DIPYRROLO[2,1-C:2′,1′-L][1]OXA[4,7,10,13]TETRAAZACYCLOHEXADECIN-16-YL 3-(DIMETHYLAMINO)PROPANOATE] ({NH(4-Cl-2-F-phenyl)-CO}-[Phe(3-Me)][aThr][Hyp](Propanoyl(3-NMe2))[Pip]A[Pro(4R-Me)]; ester 2-C)	–	–	–	0.156 (≈ 0.147 µg/mL)	0.313 (≈ 0.294 µg/mL)	99.5 ± 0.3
Cc1cccc(C[C@H](NC(=O)Nc2ccc(Cl)cc2F)C(=O)N[C@@H]2C(=O)N3CCC[C@H]3C(=O)N3CCSC[C@H]3C(=O)N[C@@H](C)C(=O)N3C[C@H](C)C[C@H]3C(=O)O[C@H]2C)c1 [Compound 38, (S)-2-(3-(4-CHLORO-2-FLUOROPHENYL)UREIDO)-3-(M-TOLYL)-N-((6AS,12S,13S,15AS,17R,21S,23AR)-13,17,21-TRIMETHYL-6,11,15,20,23-PENTAOXOOCTADECAHYDRO-6H,11H,15H-DIPYRROLO[2,1-C:2′,1′-L][1,4]THIAZINO[3,4-I][1]OXA[4,7,10,13]TETRAAZACYCLOHEXADECIN-12-YL)PROPANAMIDE] ({NH(4-Cl-2-F-phenyl)-CO}-[Phe(3-Me)][aThr]P[X1]A[Pro(4R-Me)]; ester 2-C)	–	–	–	0.078 (≈ 0.0657 µg/mL)	0.039 (≈ 0.0329 µg/mL)	99.5 ± 9.5
Cc1ccc(NC(=O)N[C@@H](Cc2cccc(C)c2)C(=O)N[C@@H]2C(=O)N3C[C@H](O)C[C@H]3C(=O)N3CCSC[C@H]3C(=O)N[C@@H](C)C(=O)N3C[C@H](C)C[C@H]3C(=O)O[C@H]2C)cc1 [Compound 42, (S)—N-((6AS,8R,12S,13S,15AS,17R,21S,23AR)-8-HYDROXY-13,17,21-TRIMETHYL-6,11,15,20,23-PENTAOXOOCTADECAHYDRO-6H,11H,15H-DIPYRROLO[2,1-C:2′,1′-L][1,4]THIAZINO[3,4-I][1]OXA[4,7,10,13]TETRAAZACYCLOHEXADECIN-12-YL)-3-(M-TOLYL)-2-(3-(P-TOLYL)UREIDO)PROPANAMIDE] ({NH(4-Me-phenyl)-CO}-[Phe(3-Me)][aThr][Hyp][X1]A[Pro(4R-Me)]; ester 2-C)	2.5 (≈ 2.05 µg/mL)	1.25 (≈ 1.02 µg/mL)	98.1 ± 8.1	–	–	–
C[C@@H]1C[C@H]2C(=O)O[C@@H](C)[C@H](NC(=O)[C@H](Cc3cc(F)cc(F)c3)NC(=O)Nc3ccc4c(c3)CCN4C)C(=O)N3CCC[C@H]3C(=O)N3CCOC[C@H]3C(=O)N[C@@H](C)C(=O)N2C1 [Compound 32] ({NH(1-Me-indolin-5-yl)-CO}-[Phe(3,5-F2)][aThr]P[Morpholine(3S-CO)]A[Pro(4R-Me)]; ester 2-C)	0.039 (≈ 0.0332 µg/mL)	0.156 (≈ 0.133 µg/mL)	83.0 ± 3.0	–	–	–
C[C@@H]1C[C@H]2C(=O)OC[C@H](NC(=O)[C@H](Cc3cc(F)cc(F)c3)NC(=O)Nc3ccc(Cl)cc3F)C(=O)N3CCC[C@H]3C(=O)N3CCN(C)C[C@H]3C(=O)N[C@@H](C)C(=O)N2C1 [Compound 34] ({NH(4-Cl-2-F-phenyl)-CO}-[Phe(3,5-F2)]SP[Piperazine(2S-CO,4-Me)]A[Pro(4R-Me)]; ester 2-C)	–	–	–	< 0.02	0.078 (≈ 0.0661 µg/mL)	96.5 ± 6.5
Cc1ccc(NC(=O)N[C@@H](Cc2cccc(C)c2)C(=O)N[C@H]2COC(=O)[C@@H]3CCCN3C(=O)[C@H](C)NC(=O)[C@@H]3CCCCN3C(=O)[C@@H]3C[C@@H](O)CN3C2=O)cc1 [Compound 49, (S)—N-((6S,8AS,14AS,16R,20S,23AS)-16-HYDROXY-6-METHYL-5,8,14,19,23-PENTAOXOOCTADECAHYDRO-1H,5H,14H,19H-PYRIDO[2,1-I]DIPYRROLO[2,1-C:2′,1′-L][1]OXA[4,7,10,13]TETRAAZACYCLOHEXADECIN-20-YL)-3-(M-TOLYL)-2-(3-(P-TOLYL)UREIDO)PROPANAMIDE]	–	–	98.7 ± 8.7	–	–	–
Cc1ccc(NC(=O)N[C@@H](Cc2cccc(C)c2)C(=O)N[C@@H]2C(=O)N3CCC[C@H]3C(=O)N3CCCC[C@H]3C(=O)N[C@@H](C)C(=O)N3C[C@@H](C)C[C@H]3C(=O)O[C@H]2C)cc1 [Compound 45, (S)-3-(M-TOLYL)-2-(3-(P-TOLYL)UREIDO)-N-((2S,6S,8AS,14AS,20S,21S,23AS)-2,6,21-TRIMETHYL-5,8,14,19,23-PENTAOXOOCTADECAHYDRO-1H,5H,14H,19H-PYRIDO[2,1-I]DIPYRROLO[2,1-C:2′,1′-L][1]OXA[4,7,10,13]TETRAAZACYCLOHEXADECIN-20-YL)PROPANAMIDE] ({NH(4-Me-phenyl)-CO}-[Phe(3-Me)][aThr]P[Pip]A[Pro(4S-Me)]; ester 2-C)	1.25 (≈ 0.982 µg/mL)	1.25 (≈ 0.982 µg/mL)	97.3 ± 0.3	–	–	–
Cc1cccc(C[C@H](NC(=O)Nc2ccc(Cl)c(F)c2)C(=O)N[C@@H]2C(=O)N3CCC[C@H]3C(=O)N3CCCC[C@H]3C(=O)N[C@@H](C)C(=O)N3C[C@H](C)C[C@H]3C(=O)O[C@H]2C)c1 [Compound 35, (S)-2-(3-(4-CHLORO-3-FLUOROPHENYL)UREIDO)-3-(M-TOLYL)-N-((2R,6S,8AS,14AS,20S,21S,23AS)-2,6,21-TRIMETHYL-5,8,14,19,23-PENTAOXOOCTADECAHYDRO-1H,5H,14H,19H-PYRIDO[2,1-I]DIPYRROLO[2,1-C:2′,1′-L][1]OXA[4,7,10,13]TETRAAZACYCLOHEXADECIN-20-YL)PROPANAMIDE] ({X2-CO}-[Phe(3-Me)][aThr]P[Pip]A[Pro(4R-Me)]; ester 2-C)	–	–	–	1.25 (≈ 1.03 µg/mL)	0.625 (≈ 0.515 µg/mL)	99.9 ± 9.9
